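Interpolation was linear, between the two tested concentrations surrounding the appropriate level; five concentrations were tested over 48 hours in 96-well plates. Abbreviation: GI50, concentration required for 50% inhibition of growth. Definition used: TGI = concentration required for complete inhibition of growth.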
Legend:
Test in all cases: DTP human tumour cell line panel, 48 h
KM20L2 colon = tested on: KM20L2 colon
A498 renal = tested on: A498 renal
HOP-18 NSCLC = tested on: HOP-18 NSCLC
DMS 273 small cell lung = tested on: DMS 273 small cell lung
DLD-1 colon = tested on: DLD-1 colon
HS 578T breast = tested on: HS 578T breast
T-47D breast = tested on: T-47D breast
PC-3 prostate = tested on: PC-3 prostate
MDA-MB-231 breast = tested on: MDA-MB-231 breast
HOP-62 NSCLC = tested on: HOP-62 NSCLC

| SMILES | TGI (KM20L2 colon) [µM] | TGI (A498 renal) [µM] | TGI (HOP-18 NSCLC) [µM] | TGI (DMS 273 small cell lung) [µM] | TGI (DLD-1 colon) [µM] | GI50 (HS 578T breast) [µM] | TGI (HS 578T breast) [µM] | GI50 (T-47D breast) [µM] | TGI (T-47D breast) [µM] | TGI (PC-3 prostate) [µM] | GI50 (MDA-MB-231 breast) [µM] | TGI (MDA-MB-231 breast) [µM] | TGI (HOP-62 NSCLC) [µM] | GI50 (PC-3 prostate) [µM] | GI50 (A498 renal) [µM] | GI50 (HOP-62 NSCLC) [µM] | GI50 (HOP-18 NSCLC) [µM] | GI50 (DMS 273 small cell lung) [µM] | GI50 (DLD-1 colon) [µM] |
| --- | --- | --- | --- | --- | --- | --- | --- | --- | --- | --- | --- | --- | --- | --- | --- | --- | --- | --- | --- |
| N/C(=C\c1ccc(/C=C(\NC(=O)c2ccccc2)c2nc3c([nH]2)C(=O)c2ccccc2C3=O)cc1)c1nc2c([nH]1)C(=O)c1ccccc1C2=O | 36.2 | 29.9 | 28.4 | 42.1 | 33 | – | – | – | – | – | – | – | – | – | – | – | – | – | – |
| COc1ccc2c(c1)C(=O)c1c-2n(CCCN=[N+]=[N-])c(=O)c2cc([N+](=O)[O-])ccc12 | – | – | – | – | – | 16.2 | > 100 | 1.57 | > 100 | > 100 | 33.3 | > 100 | – | – | – | – | – | – | – |
| CCOC(=O)NC(=O)c1cn(CCN(CCO)C(=O)NCCCCCCNC(=O)N(CCO)CCn2cc(C(=O)NC(=O)OCC)c(=O)[nH]c2=O)c(=O)[nH]c1=O | > 100 | > 100 | > 100 | > 100 | > 100 | – | – | – | – | – | – | – | > 100 | – | – | – | – | – | – |
| COc1cc2c(c(OC)c1OC)-c1ccc(OC)c(=O)cc1C(NC(=O)CCCCCNc1ccc(N=[N+]=[N-])cc1[N+](=O)[O-])CC2 (configuration not stated) | – | – | – | – | – | – | 4.67 | – | > 31.6 | < 0.01 | – | < 0.01 | > 31.6 | – | – | – | – | – | – |
| COc1cc(-c2n/c(=C\c3c(O)[nH]c4ccccc34)cc3c2=Nc2ccccc2-3)ccc1F | – | > 100 | – | – | – | 19.7 | > 100 | 6.87 | 82 | 48.8 | 3.91 | 16.8 | 17.3 | 10.2 | 40.4 | 4.68 | – | – | – |
| COc1nc2ccc(Cl)c(C(O)c3ccccc3)c2nc1OC (configuration not stated) | – | 37.1 | – | – | – | – | 38.9 | – | 99.4 | > 100 | – | 39.9 | 38.6 | – | – | – | – | – | – |
| CCCC[n+]1ccn(-c2nc3ccccc3n2C)c1 | > 100 | – | > 100 | > 100 | > 100 | – | – | – | – | – | – | – | > 100 | – | – | – | – | – | – |
| COc1cc(/C=C2\C(=O)Nc3ccc(Cl)cc32)cc(OC)c1OC | – | 72.4 | – | – | – | 16.5 | > 100 | > 100 | > 100 | > 100 | 11.4 | 37.3 | – | 2.93 | 23.2 | – | – | – | – |
| N#C[S-].[Ce+3].c1ccc(-c2ccccn2)nc1.c1ccc(-c2ccccn2)nc1.c1ccc(-c2ccccn2)nc1 | – | – | 46.8 | 33.9 | > 100 | – | – | – | – | – | – | – | – | – | – | – | 4.33 | 11 | 5.26 |

— PubChem BioAssay (NCI)
